Non-standard residues stand in square brackets, D forms with d. Residues, ends and D or L forms follow the SMILES beside them. *: point of attachment. Sta = CC(C)C[C@H](N)[C@@H](O)CC(=O)O; pNA = O=[N+]([O-])c1ccc(N*)cc1; Isovaleryl = CC(C)CC(=O)*; Cbz = O=C(OCc1ccccc1)*
Experiments:
DPPIV [1] = molecular target: T1, DPPIV (Homo sapiens, UniProt P27487); test: Inhibition of peptidase activity of purified DPPIV, substrate H-Gly-Pro-pNA; format: biochemical; parameters: His tag; made in house; host or cells: transfected COS-7 cells; solubilised with 1% Triton X-100; conditions: 1 mM H-Gly-Pro-pNA, pH 7.4
Method: (§1) Cells (1×10^7) expressing each protein were sonicated in native buffer (50 mM sodium phosphate, 300 mM NaCl), then treated with 700 U DNAse for 20 min at room temperature. DPPIV is expressed at the cell surface, so 1% Triton X-100 was used to solubilize DPPIV/V5/His. Insoluble material was removed by centrifugation. The supernatant was incubated with 1 mL Talon® Metal Affinity Resin (Clontech) following the manufacturer's instructions for a batch/gravity flow procedure. The resin was washed with 50 mM sodium phosphate, containing 300 mM NaCl and 5 mM imidazole, and proteins were eluted using the same buffer containing 150 mM imidazole. Enzyme activity was used to monitor eluted fractions.
(§2) Enzyme assays were performed as described previously. Either clarified cell extract from 1×10^4 sonicated COS-7 cells or purified protein derived from 1×10^5 cells was incubated with substrate in 70 μL phosphate buffer, pH 7.4, for 30 min at 37° C., except where otherwise indicated. The specific DPPIV substrates, Gly-Pro-toluenesulfonate, H-Gly-Pro-p-nitroanilide (NA)/HCl (Sigma, St Louis, Mo., USA) and Gly-Pro-7-amino-4-trifluromethylcoumarin (Calbiochem, San Diego, Calif., USA) were tested. Other substrates tested were H-Ala-Pro-pNA/HCl, H-Arg-Pro-pNA acetate salt, H-Lys-Ala-pNA.2HCl, H-Asp-Pro-pNA, H-Ala-Ala-pNA/HCl, H-Ala-Ala-Pro-pNA/HCl, H-Ala-Ala-Phe-pNA, succinyl-Ala-Pro-pNA, H-Ala-Phe-Pro-pNA and Z-Ala-Pro-p-NA from Bachem (Switzerland). H-Ala-Pro-4-methoxyβNA/HCl, Z-Lys-Pro-4-methoxyβNAformate salt, H-Lys-Pro-4-methoxyβNA/HCl, Z-Ala-Pro-4-methoxyβNA, H-Gly-Pro-βNA and H-His-Ser-4-methoxyβNAacetate salt (Bachem) were tested for their ability to stain unfixed transfected cells. All inhibitors were (see Table 2) incubated with each purified enzyme in phosphate buffer, pH 7.4, for 15 min before the addition of substrate. After the addition of 1 mM H-Ala-Pro-pNA substrate for purified DPP8 and 1 mM H-Gly-Pro-pNA substrate for purified DPPIV, samples were incubated for 60 min at 37° C. All enzyme assays were performed in triplicate.

DPP8 [2] = molecular target: T2, DPP8 (Homo sapiens, UniProt Q6V1X1); test: Inhibition of peptidase activity of purified DPP8, substrate H-Ala-Pro-pNA; format: biochemical; parameters: the full length DPP8 cDNA of 3.1 kb was cloned into the Xba I site of pcDNA3.1A/V5/His expression vector; His tag (C); made in house; host or cells: COS-7 cells, stably transfected; conditions: for Residual activity (% of control): 1 mM H-Ala-Pro-pNA, pH 7.4
Method: as §1, §2

DPP8/V5/His = molecular target: T3, DPP8/V5/His (Homo sapiens, UniProt Q6V1X1); test: Substrate hydrolysis by purified recombinant DPP8/V5/His; format: biochemical
T3 construct: the full length DPP8 cDNA of 3.1 kb was cloned into the Xba I site of pcDNA3.1A/V5/His expression vector; His tag (C); made in house; host or cells: COS-7 cells, stably transfected
Method: as §1, §2

DPP8 [3] = molecular target: T2, DPP8; test: Enzyme kinetics (Km, Vmax) of purified DPP8; format: biochemical; parameters: the full length DPP8 cDNA of 3.1 kb was cloned into the Xba I site of pcDNA3.1A/V5/His expression vector; His tag (C); made in house; host or cells: COS-7 cells, stably transfected; conditions: for Km: Michaelis-Menten fit
Method: (§3) FIG. 7. DPP8 enzyme activity. (A) pH-dependence of DPP8 enzyme activity. (B) DPP8 and DPPIV enzyme kinetics. Means +/− SD of absorbance change per minute, multiplied by 1000 are shown. Curve fitting assumed Michaelis-Menten kinetics.
as §1, §2

DPPIV/V5/His = molecular target: T4, DPPIV/V5/His (Homo sapiens, UniProt P27487); test: Substrate hydrolysis by purified recombinant DPPIV/V5/His; format: biochemical
T4 construct: His tag; made in house; host or cells: transfected COS-7 cells; solubilised with 1% Triton X-100
Method: as §1, §2

DPPIV [4] = molecular target: T1, DPPIV; test: Enzyme kinetics (Km, Vmax) of purified DPPIV; format: biochemical; parameters: His tag; made in house; host or cells: transfected COS-7 cells; solubilised with 1% Triton X-100; conditions: for Km: Michaelis-Menten fit
Method: as §3, §1, §2

DPPIV [5] = molecular target: T1, DPPIV; conditions: reference [46]; cited from earlier work
DPP8 [6] = molecular target: T2, DPP8; test: Substrate hydrolysis by extracts of DPP8-transfected COS-7 cells; format: biochemical; parameters: the full length DPP8 cDNA of 3.1 kb was cloned into the Xba I site of pcDNA3.1A/V5/His expression vector; expressed in transfected cells; host or cells: COS-7 (monkey kidney fibroblast) cells; clarified sonicated cell extract; conditions: above the levels of untransfected COS-7 cells; data not shown
Method: (§4) Monkey kidney fibroblast (COS-7) cells (American Type Culture Collection, CRL-1651) were grown and transfected as described previously. For making stable cell lines, Geneticin (G418; Gibco-BRL) was added to the medium, beginning 24 h after transfection. COS cell extracts were prepared by sonication followed by differential centrifugation and neither boiled nor reduced before SDS/PAGE (10% gel) and transfer to nitrocellulose, as described previously. The presence of DPP8 fused with the V5 epitope was detected using an anti-V5 mAb (Invitrogen). COS cell monolayers were fixed in cold ethanol before staining with anti-V5 mAb. Some monolayers were fixed in 4% paraformaldehyde and permeabilized with 0.1% Triton X-100 [35], then double-stained with wheat germ agglutinin to label Golgi apparatus and with goat anti-mouse IgG to label DPP8, conjugated to Alexa Fluor 488 and Alexa Fluor 594, respectively (Molecular Probes, Eugene, Oreg., USA). Flow cytometry and confocal scanning microscopy using a Leica TCS-NT confocal microscope have been described previously.
as §2
DPPIV expressed in COS-7 cells with or without the V5/His tag were positive controls, and negative controls included vector-only transfected COS07 cells. […] The pH optimum of DPP8 enzyme activity was 7.4 (FIG. 5A), similar to the pH 7.8 optimum DPPIV enzyme activity. […]

[7] = test system: DPP8-transfected COS cells and CHO cells; test: Cytochemical staining of unfixed transfected cell monolayers by substrates; format: cell-based; conditions: data not shown
Method: as §4
Enzyme assays were performed as described previously. Either clarified cell extract from 1×10^4 sonicated COS-7 cells or purified protein derived from 1×10^5 cells was incubated with substrate in 70 μL phosphate buffer, pH 7.4, for 30 min at 37° C., except where otherwise indicated. […]

T2 sequence (Q6V1X1 17-898 limits assumed): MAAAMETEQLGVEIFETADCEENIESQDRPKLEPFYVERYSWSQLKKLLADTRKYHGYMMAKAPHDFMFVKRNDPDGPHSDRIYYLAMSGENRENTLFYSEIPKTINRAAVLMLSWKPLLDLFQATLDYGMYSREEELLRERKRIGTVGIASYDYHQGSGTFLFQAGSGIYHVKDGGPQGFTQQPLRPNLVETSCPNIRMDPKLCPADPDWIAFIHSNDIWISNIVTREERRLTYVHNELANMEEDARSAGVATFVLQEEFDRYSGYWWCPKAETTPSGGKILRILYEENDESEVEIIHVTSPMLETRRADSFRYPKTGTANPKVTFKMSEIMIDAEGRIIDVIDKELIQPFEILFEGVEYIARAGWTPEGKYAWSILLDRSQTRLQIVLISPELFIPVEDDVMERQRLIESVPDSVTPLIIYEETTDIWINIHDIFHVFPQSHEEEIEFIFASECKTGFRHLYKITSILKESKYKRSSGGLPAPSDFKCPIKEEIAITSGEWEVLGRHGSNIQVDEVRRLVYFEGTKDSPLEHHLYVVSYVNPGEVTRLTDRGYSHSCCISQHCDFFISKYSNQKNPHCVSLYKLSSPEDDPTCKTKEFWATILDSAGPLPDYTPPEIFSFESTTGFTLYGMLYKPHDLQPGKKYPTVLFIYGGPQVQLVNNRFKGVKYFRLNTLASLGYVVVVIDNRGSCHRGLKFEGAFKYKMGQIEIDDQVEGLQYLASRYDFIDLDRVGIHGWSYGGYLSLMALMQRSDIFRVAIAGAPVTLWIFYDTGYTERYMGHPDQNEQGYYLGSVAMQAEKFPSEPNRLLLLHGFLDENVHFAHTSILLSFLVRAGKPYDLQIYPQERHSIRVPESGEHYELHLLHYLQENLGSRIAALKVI
T3 sequence (Q6V1X1 17-898 limits assumed): as above
T4 sequence (P27487 whole entry): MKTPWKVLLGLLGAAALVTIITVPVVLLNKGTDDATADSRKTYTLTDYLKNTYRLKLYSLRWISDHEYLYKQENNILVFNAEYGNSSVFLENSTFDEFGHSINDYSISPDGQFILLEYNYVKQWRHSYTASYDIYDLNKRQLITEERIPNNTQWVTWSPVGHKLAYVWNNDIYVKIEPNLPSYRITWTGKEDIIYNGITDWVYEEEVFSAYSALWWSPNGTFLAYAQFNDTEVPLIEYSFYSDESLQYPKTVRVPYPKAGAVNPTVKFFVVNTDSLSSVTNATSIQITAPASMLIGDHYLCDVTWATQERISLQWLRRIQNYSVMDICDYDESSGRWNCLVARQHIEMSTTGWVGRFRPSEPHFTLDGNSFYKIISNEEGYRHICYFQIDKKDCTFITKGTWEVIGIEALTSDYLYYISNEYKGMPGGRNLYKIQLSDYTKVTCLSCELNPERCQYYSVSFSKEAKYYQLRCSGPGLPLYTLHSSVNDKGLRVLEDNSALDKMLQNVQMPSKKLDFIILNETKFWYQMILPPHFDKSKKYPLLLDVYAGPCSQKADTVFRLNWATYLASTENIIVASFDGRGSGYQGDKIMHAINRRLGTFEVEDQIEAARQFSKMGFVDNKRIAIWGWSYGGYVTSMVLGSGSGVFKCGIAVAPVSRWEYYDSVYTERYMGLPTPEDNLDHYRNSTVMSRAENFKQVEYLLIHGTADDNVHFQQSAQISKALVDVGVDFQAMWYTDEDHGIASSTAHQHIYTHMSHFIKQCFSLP
T1 sequence (P27487 whole entry): as above

With Gly-Gly-Gly (GGG) [peptide] the “Residual activity (% of control)” value (DPPIV [1]; inhibitor 10 mM) was 106 % of control and the “Residual activity (% of control)” value (DPP8 [2]; inhibitor 10 mM) was 99 % of control.
With `NCC(=O)N1CCC[C@H]1C(=O)Nc1ccc([N+](=O)[O-])cc1` [H-Gly-Pro-pNA, H-Gly-Pro-p-nitroanilide] (H-Gly-Pro-pNA) the “Hydrolysis (cleavage) of substrate by purified recombinant DPP8” value (from here on “Hydrolysis (cleavage) of substrate”) (DPP8/V5/His) was “hydrolyzed”, the Vmax (DPP8 [3]) was 3.5 ± 0.14 ΔA min^−1 × 1000 and the Km (DPP8 [3]) was 467 ± 64 µM. The “Hydrolysis of substrate by purified recombinant DPPIV” value (DPPIV/V5/His) was “hydrolyzed”, the Vmax (DPPIV [4]) was 7.2 ± 0.49 ΔA min^−1 × 1000 and the Km (DPPIV [4]) was 347 ± 88 µM.
For `O=S(=O)([O-])[O-].[Zn+2]` [Zinc sulphate], the “Inhibition of DPPIV enzyme activity (in words)” value (DPPIV [5]) is given as “completely inhibits”.
In the case of Aprotinin, the “Residual activity (% of control)” value (DPPIV [1]; inhibitor 4 μg mL^−1) is reported as 81 % of control and the “Residual activity (% of control)” value (DPP8 [2]; inhibitor 4 μg mL^−1) is reported as 47 % of control.
For `C[C@H](NC(=O)OCc1ccccc1)C(=O)N1CCC[C@H]1C(=O)Nc1ccc([N+](=O)[O-])cc1` [Z-Ala-Pro-pNA] (Cbz-Ala-Pro-pNA), the “Hydrolysis of substrate by extracts of DPP8-transfected COS-7 cells” value (“Hydrolysis … of DPP8-transfected COS-7 cells” for short) (DPP8 [6]) was “endopeptidase activity”.
In the case of `Cl.N=C(N)c1ccccc1` [Benzamidine/HCl], the “Residual activity (% of control)” value (DPPIV [1]; inhibitor 10 mM) is reported as 89 % of control and the “Residual activity (% of control)” value (DPP8 [2]; inhibitor 10 mM) is reported as 82 % of control.
In the case of `CC(C)CC(=O)N[C@H](C(=O)N[C@H](C(=O)N[C@@H](CC(C)C)[C@@H](O)CC(=O)N[C@@H](C)C(=O)N[C@@H](CC(C)C)[C@@H](O)CC(=O)O)C(C)C)C(C)C` [Pepstatin] (Isovaleryl-VV[Sta]A[Sta]-OH), the “Residual activity (% of control)” value (DPPIV [1]; inhibitor 2 μg mL^−1) is reported as 110 % of control and the “Residual activity (% of control)” value (DPP8 [2]; inhibitor 2 μg mL^−1) is reported as 107 % of control.
With `CC(=O)N[C@@H](CC(C)C)C(=O)N[C@@H](CC(C)C)C(=O)N[C@H](C=O)CCCNC(=N)N` [Leupeptin] the “Residual activity (% of control)” value (DPPIV [1]; inhibitor 0.1 mM) was 104 % of control and the “Residual activity (% of control)” value (DPP8 [2]; inhibitor 0.1 mM) was 93 % of control.
In the case of `C[C@H](N)C(=O)N[C@@H](C)C(=O)N1CCC[C@H]1C(=O)Nc1ccc([N+](=O)[O-])cc1.Cl` [H-Ala-Ala-Pro-pNA] (H-Ala-Ala-Pro-pNA), the “Hydrolysis … of DPP8-transfected COS-7 cells” value (DPP8 [6]) is reported as “exhibited tripeptidyl peptidase activity”.
For “Ala-Pro-Gly (APG) [peptide that mimics DPP8 substrates]”, the “Residual activity (% of control)” value (DPPIV [1]; inhibitor 10 mM) was 67 % of control, the “Residual activity (% of control)” value (DPP8 [2]; inhibitor 10 mM) was 51 % of control and the “Inhibition of DPP8 enzyme activity (in words)” value (DPP8 [2]; purified DPP8) was “probably competitively inhibited”.
In the case of `NC(=O)CI` [Iodoacetamide], the “Residual activity (% of control)” value (DPPIV [1]; inhibitor 2 mM) is reported as 115 % of control and the “Residual activity (% of control)” value (DPP8 [2]; inhibitor 2 mM) is reported as 100 % of control.
For `C[C@H](N)C(=O)N[C@@H](C)C(=O)N[C@@H](Cc1ccccc1)C(=O)Nc1ccc([N+](=O)[O-])cc1` [H-Ala-Ala-Phe-pNA] (H-Ala-Ala-Phe-pNA), the “Hydrolysis (cleavage) of substrate” value (DPP8/V5/His) was “neither”.
With `NC(N)=NCCC[C@H](N)C(=O)N1CCC[C@H]1C(=O)Nc1ccc([N+](=O)[O-])cc1` [H-Arg-Pro-pNA] (H-Arg-Pro-pNA) the “Hydrolysis (cleavage) of substrate” value (DPP8/V5/His) was “hydrolyzed”, the “Hydrolysis … of DPP8-transfected COS-7 cells” value (DPP8 [6]) was “hydrolyzed” and the “Hydrolysis of substrate by purified recombinant DPPIV” value (DPPIV/V5/His) was “hydrolyzed”.
In the case of `O[C@H](CS)[C@H](O)CS` (racemic) [Dithiothreitol], the “Residual activity (% of control)” value (DPPIV [1]; inhibitor 2 mM) is reported as 109 % of control and the “Residual activity (% of control)” value (DPP8 [2]; inhibitor 2 mM) is reported as 108 % of control.
For `COc1cc(NC(=O)[C@@H]2CCCN2C(=O)[C@H](C)N)cc2ccccc12.Cl` [Ala-Pro-4MβNA/HCl, H-Ala-Pro-4-methoxyβNA/HCl], the “Staining of DPP8-transfected cells by substrate” value [7] was “stained”.
In the case of `C[C@H](N)C(=O)N[C@@H](Cc1ccccc1)C(=O)N1CCC[C@H]1C(=O)Nc1ccc([N+](=O)[O-])cc1` [H-Ala-Phe-Pro-pNA] (H-Ala-Phe-Pro-pNA), the “Hydrolysis (cleavage) of substrate” value (DPP8/V5/His) is reported as “neither”.
In the case of `C[C@H](N)C(=O)N1CCC[C@H]1C(=O)Nc1ccc([N+](=O)[O-])cc1` [H-Ala-Pro-pNA] (H-Ala-Pro-pNA), the “Hydrolysis (cleavage) of substrate” value (DPP8/V5/His) is reported as “hydrolyzed”, the “Hydrolysis … of DPP8-transfected COS-7 cells” value (DPP8 [6]) is reported as “hydrolyzed” and the Vmax (DPP8 [3]) is reported as 12.4 ± 0.9 ΔA min^−1 × 1000. For the same compound, the Km (DPP8 [3]) was 991 ± 171 µM, the “Hydrolysis of substrate by purified recombinant DPPIV” value (DPPIV/V5/His) was “hydrolyzed” and the Vmax (DPPIV [4]) was 9.6 ± 1.0 ΔA min^−1 × 1000. For the same compound, the Km (DPPIV [4]) was 374 ± 134 µM.

— patent US7148338B2, “Nucleic acids encoding dipeptidyl peptidases” (The University of Sydney, priority 1999, dated 2006)
